Data from PMC9851200, “Multiparameter phenotypic screening for endogenous TFEB and TFE3 translocation identifies novel chemical series modulating lysosome function” (Autophagy, 2022).

What was measured:
Format in all cases: binding
[1] = molecular target: kinases (KINOMEscan panel) (Homo sapiens, UniProt P00519, M351T); conditions: kinase ABL1(M351T)-phosphorylated; NEW KINOMEscan
[2] = molecular target: T1, kinases (KINOMEscan panel) (Homo sapiens, UniProt Q6ZN16); conditions: NEW KINOMEscan
T1 sequence (Q6ZN16 1-1313): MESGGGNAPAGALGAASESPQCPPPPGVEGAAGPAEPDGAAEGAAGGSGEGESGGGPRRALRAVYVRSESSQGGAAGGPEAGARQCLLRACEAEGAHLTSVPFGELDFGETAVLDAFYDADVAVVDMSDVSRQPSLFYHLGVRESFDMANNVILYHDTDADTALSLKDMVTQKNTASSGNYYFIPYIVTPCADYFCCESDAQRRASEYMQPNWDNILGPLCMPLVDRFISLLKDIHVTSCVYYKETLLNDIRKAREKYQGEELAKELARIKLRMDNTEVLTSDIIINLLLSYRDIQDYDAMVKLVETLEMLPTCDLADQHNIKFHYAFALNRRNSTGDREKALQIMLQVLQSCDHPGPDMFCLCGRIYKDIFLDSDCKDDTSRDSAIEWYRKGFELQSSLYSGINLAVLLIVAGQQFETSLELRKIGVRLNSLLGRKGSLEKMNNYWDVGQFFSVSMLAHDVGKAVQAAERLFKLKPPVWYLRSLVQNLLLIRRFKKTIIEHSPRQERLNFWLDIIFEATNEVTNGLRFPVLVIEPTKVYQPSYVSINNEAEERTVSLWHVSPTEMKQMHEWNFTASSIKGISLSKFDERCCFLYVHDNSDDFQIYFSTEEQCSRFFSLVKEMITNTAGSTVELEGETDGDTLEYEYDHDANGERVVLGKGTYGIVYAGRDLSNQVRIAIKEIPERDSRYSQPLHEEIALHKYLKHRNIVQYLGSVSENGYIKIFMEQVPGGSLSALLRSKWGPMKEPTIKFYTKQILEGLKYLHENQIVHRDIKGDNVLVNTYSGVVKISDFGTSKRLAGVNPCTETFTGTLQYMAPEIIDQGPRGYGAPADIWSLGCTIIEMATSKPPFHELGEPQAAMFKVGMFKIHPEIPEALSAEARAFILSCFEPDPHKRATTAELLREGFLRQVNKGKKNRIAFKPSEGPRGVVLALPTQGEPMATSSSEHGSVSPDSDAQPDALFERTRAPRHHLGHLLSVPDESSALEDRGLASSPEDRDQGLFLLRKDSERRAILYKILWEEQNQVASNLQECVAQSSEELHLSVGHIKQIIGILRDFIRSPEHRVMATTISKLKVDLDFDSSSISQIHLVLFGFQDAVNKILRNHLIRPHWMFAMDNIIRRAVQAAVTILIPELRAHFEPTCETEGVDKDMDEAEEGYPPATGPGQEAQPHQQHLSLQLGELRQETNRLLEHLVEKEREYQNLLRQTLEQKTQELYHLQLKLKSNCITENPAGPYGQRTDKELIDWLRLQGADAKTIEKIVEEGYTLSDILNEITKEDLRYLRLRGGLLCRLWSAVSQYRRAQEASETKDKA

[3] = molecular target: kinases (KINOMEscan panel) (Homo sapiens, UniProt Q9UM73, L1196M); conditions: kinase ALK(L1196M); NEW KINOMEscan
kinases (KINOMEscan panel) (Homo sapiens, UniProt Q9UM73, L1196M), sequence (Q9UM73 19-1620 L1196M): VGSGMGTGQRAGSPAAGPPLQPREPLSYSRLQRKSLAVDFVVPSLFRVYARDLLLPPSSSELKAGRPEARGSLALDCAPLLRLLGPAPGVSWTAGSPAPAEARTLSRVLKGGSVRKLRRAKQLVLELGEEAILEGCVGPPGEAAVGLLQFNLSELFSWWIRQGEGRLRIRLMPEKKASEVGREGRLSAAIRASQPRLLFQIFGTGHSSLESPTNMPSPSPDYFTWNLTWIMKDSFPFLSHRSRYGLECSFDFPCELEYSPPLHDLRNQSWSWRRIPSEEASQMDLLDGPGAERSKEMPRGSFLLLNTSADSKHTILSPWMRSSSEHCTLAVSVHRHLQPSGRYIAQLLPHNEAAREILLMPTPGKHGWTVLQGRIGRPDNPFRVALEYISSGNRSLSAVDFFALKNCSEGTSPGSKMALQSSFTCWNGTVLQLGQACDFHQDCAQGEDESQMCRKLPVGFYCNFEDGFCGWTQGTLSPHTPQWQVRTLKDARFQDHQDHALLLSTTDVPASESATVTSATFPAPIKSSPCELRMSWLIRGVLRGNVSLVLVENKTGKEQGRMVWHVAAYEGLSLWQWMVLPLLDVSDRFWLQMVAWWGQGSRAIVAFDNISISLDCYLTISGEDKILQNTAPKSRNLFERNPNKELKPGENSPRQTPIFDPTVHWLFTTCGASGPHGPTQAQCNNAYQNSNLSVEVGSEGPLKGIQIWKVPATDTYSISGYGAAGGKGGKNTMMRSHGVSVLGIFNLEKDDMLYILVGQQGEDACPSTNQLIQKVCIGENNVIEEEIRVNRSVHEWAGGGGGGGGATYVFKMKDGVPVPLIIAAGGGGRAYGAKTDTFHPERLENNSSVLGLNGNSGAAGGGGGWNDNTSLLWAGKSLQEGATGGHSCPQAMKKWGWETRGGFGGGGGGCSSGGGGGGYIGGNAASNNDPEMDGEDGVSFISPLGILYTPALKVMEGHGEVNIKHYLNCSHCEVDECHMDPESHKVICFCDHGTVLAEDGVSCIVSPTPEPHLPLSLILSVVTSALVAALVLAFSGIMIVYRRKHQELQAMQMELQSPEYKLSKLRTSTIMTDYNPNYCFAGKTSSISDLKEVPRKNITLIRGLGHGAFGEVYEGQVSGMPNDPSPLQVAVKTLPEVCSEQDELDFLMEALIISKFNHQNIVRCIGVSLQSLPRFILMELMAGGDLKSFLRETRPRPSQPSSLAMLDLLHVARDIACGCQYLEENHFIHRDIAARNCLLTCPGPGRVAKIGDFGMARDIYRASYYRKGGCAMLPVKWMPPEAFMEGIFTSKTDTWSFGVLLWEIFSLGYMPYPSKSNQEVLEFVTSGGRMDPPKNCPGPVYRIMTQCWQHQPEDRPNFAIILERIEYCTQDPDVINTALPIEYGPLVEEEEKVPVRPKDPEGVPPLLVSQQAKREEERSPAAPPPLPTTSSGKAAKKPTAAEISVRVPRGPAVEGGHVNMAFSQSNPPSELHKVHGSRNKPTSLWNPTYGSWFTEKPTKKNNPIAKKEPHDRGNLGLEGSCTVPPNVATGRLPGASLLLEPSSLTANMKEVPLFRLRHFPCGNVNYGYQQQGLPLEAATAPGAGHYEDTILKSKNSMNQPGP

[4] = molecular target: kinases (KINOMEscan panel) (Homo sapiens, UniProt P00533, G719C); conditions: kinase EGFR(G719C); NEW KINOMEscan
kinases (KINOMEscan panel) (Homo sapiens, UniProt P00533, G719C), sequence (P00533 25-1210 G719C): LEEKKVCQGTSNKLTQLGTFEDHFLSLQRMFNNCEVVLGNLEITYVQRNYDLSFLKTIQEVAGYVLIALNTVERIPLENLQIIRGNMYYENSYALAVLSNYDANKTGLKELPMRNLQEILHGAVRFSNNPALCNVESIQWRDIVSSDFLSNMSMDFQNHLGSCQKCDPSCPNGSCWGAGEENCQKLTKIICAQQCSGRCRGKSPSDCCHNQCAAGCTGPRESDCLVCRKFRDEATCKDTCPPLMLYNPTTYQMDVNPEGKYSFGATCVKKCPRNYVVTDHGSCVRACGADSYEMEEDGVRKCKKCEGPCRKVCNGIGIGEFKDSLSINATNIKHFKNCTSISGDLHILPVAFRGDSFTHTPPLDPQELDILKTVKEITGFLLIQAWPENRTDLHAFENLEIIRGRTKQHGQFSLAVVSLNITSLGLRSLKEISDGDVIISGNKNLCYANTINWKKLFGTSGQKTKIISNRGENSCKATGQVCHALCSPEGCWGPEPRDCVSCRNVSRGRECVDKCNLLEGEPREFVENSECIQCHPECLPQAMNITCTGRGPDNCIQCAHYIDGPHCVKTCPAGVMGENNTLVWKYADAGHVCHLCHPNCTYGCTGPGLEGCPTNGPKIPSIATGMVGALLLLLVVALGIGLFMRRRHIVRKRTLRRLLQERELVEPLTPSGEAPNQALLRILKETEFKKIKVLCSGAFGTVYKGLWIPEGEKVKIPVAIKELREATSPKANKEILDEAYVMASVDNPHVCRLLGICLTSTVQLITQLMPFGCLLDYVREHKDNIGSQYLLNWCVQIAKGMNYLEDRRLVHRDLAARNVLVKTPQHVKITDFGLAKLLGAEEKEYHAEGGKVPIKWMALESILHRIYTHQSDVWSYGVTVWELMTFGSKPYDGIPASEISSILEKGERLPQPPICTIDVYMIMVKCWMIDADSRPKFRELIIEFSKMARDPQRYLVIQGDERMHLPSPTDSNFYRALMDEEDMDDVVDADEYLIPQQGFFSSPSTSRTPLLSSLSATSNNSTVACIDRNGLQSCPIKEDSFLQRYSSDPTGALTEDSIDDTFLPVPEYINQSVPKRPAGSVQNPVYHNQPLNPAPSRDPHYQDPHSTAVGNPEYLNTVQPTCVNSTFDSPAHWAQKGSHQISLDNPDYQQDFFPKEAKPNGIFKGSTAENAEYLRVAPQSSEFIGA

[5] = molecular target: kinases (KINOMEscan panel) (Homo sapiens, UniProt P42336, C420R); conditions: PIK3CA(C420R); NEW KINOMEscan
[6] = molecular target: kinases (KINOMEscan panel) (Homo sapiens, UniProt P21802); conditions: kinase FGFR2; NEW KINOMEscan
kinases (KINOMEscan panel) (Homo sapiens, UniProt P21802), sequence (P21802 22-821): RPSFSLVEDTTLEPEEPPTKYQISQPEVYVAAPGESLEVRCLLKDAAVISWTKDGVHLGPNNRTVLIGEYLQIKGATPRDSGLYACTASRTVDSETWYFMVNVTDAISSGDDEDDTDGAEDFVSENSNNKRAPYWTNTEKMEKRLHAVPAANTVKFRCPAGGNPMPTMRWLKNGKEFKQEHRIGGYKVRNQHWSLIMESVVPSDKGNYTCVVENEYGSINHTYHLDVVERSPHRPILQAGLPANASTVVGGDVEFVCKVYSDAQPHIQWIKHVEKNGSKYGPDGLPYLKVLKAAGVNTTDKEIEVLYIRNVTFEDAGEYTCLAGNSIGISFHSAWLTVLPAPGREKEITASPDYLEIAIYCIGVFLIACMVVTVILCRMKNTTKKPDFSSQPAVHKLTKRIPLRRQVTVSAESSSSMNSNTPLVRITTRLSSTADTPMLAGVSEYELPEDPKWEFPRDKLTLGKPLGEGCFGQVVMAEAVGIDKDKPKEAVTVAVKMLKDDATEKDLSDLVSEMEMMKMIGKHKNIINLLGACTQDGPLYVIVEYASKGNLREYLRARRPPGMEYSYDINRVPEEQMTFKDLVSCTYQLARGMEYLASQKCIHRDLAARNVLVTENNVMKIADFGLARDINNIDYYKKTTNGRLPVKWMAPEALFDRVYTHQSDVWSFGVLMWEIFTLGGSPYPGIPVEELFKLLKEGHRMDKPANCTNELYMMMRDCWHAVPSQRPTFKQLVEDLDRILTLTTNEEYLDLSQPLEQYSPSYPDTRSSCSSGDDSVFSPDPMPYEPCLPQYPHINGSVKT

[7] = molecular target: kinases (KINOMEscan panel) (Homo sapiens, UniProt P51451); conditions: kinase BLK; NEW KINOMEscan
kinases (KINOMEscan panel) (Homo sapiens, UniProt P51451), sequence (P51451 whole entry): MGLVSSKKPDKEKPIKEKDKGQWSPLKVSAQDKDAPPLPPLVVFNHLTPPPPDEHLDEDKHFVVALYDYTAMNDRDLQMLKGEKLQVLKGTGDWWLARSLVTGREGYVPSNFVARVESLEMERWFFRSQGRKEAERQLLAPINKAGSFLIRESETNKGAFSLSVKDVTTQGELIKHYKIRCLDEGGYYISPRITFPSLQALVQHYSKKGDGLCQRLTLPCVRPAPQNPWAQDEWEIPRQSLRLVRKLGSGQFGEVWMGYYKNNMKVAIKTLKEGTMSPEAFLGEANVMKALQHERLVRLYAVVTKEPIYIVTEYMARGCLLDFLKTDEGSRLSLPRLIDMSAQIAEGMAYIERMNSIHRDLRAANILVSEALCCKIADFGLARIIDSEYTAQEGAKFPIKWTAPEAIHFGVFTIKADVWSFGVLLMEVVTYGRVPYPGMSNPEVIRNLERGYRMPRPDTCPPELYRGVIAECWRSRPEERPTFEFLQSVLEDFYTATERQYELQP

[8] = molecular target: kinases (KINOMEscan panel) (Homo sapiens, UniProt P09769); conditions: FGR; NEW KINOMEscan
[9] = molecular target: kinases (KINOMEscan panel) (Homo sapiens, UniProt Q9Y6M4); conditions: CSNK1G3; NEW KINOMEscan
kinases (KINOMEscan panel) (Homo sapiens, UniProt Q9Y6M4), sequence (Q9Y6M4 whole entry): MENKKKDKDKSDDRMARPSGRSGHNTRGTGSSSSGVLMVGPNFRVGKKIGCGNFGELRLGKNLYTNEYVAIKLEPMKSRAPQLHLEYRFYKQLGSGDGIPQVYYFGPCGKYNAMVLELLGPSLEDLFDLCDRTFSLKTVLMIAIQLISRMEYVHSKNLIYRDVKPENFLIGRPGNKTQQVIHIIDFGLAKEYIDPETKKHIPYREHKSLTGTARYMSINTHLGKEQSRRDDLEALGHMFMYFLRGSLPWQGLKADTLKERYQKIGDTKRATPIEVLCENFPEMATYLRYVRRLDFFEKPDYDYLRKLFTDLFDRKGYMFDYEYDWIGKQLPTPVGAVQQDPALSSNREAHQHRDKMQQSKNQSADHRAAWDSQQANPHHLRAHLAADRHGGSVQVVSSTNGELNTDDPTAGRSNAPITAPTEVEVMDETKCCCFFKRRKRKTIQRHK

[10] = molecular target: T2, kinases (KINOMEscan panel) (Homo sapiens, UniProt Q6P3R8); conditions: kinase NEK5; NEW KINOMEscan
T2 sequence (Q6P3R8 1-708): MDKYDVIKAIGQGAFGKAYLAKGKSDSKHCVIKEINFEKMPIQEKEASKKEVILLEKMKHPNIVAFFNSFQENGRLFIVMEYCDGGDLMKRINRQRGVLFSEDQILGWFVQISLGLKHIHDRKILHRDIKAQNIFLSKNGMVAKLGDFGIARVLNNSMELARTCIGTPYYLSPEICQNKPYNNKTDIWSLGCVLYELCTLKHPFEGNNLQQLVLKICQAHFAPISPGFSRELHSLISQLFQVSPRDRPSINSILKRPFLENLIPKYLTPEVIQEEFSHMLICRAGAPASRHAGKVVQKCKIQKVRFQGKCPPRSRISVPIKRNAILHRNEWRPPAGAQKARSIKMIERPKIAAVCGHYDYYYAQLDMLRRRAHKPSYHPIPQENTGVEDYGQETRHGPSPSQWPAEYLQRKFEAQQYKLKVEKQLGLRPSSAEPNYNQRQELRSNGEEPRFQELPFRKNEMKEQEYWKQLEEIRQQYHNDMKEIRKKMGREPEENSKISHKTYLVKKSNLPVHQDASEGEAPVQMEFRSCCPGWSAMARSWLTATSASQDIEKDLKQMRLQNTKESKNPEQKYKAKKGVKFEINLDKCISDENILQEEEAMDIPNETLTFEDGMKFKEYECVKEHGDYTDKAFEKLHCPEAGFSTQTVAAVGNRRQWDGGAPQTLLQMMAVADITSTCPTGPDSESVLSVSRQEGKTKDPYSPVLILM

[11] = molecular target: kinases (KINOMEscan panel) (Homo sapiens, UniProt P19784); conditions: CSNK2A2; NEW KINOMEscan
kinases (KINOMEscan panel) (Homo sapiens, UniProt P19784), sequence (P19784 whole entry): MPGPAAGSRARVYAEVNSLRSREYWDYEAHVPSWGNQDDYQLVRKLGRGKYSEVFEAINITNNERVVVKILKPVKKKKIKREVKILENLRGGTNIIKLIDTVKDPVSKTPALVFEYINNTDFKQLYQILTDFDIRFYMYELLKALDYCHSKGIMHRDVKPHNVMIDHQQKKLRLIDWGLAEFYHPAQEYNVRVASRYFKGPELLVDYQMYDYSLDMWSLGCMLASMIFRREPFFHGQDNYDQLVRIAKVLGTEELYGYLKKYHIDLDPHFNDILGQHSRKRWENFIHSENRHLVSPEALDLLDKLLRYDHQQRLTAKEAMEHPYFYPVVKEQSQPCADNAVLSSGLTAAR

Row | SMILES | KINOMEscan ABL1(M351T)-phosphorylated [1] | KINOMEscan MAP3K15 [2] | KINOMEscan ALK(L1196M) [3] | KINOMEscan EGFR(G719C) [4] | KINOMEscan PIK3CA(C420R) [5] | KINOMEscan FGFR2 [6] | KINOMEscan BLK [7] | KINOMEscan FGR [8] | KINOMEscan CSNK1G3 [9] | KINOMEscan NEK5 [10] | KINOMEscan CSNK2A2 [11]
1 | Cc1cccc(-c2nc(Nc3ccc4nn(C)cc4c3)c3ccccc3n2)n1 [NK167] | 0 | 21 | 0 | 0 | 0 | 0 | 0 | 0 | 0 | 0 | 0
2 | Cc1cccc(-c2nc(N(C)c3ccc4ncsc4c3)c3ccccc3n2)n1 [NK-161] | 0 | 21 | 0 | 0 | 0 | 9 | 0 | 0 | 0 | 0 | 5
